Patent publication US20050136444A1 (priority 2003, published 2005)
Structures can show the parent of a compound that is named as a salt.

Key:
NPFF1 = NPFF1 (Homo sapiens, UniProt Q9GZQ6); test: Receptor Selection and Amplification Technology (R-SAT) functional assay, NPFF1; assay type: cell-based; set-up: expressed in transfected cells; host or cells: NIH3T3; settings: R-SAT, Table 1; for Emax: Efficacy is relative to endogenous ligand, read-out: NPFF1 % Efficacy; for EC50: NA = No activity detectable at the highest dose tested (20 μM), read-out: NPFF1 pEC50 (converted)
Description: (§1) Briefly, NIH3T3 cells were grown in 96 well tissue culture plates to 70-80% confluence. Cells were transfected for 16-20 h h with plasmid DNAs using Polyfect (Qiagen Inc.) as per manufacturer's protocols. R-SAT's were generally performed with 40 ng/well of receptor and 20 ng/well of β-galactosidase plasmid DNA. All receptor and G-protein constructs used were in the pSI-derived mammalian expression vector (Promega Inc) as described previously. […] For large-scale transfections, cells were transfected for 16-20 h, then trypsinized and frozen in DMSO. Frozen cells were later thawed, plated at ˜20,000 cells per well of a 96 half-area well plate that contained drug. With both methods, cells were then grown in a humidified atmosphere with 5% ambient CO2 for five days. Media was then removed from the plates and marker gene activity was measured by the addition of the β-galactosidase substrate o-nitrophenyl β-D-galactopyranoside (ONPG, in PBS with 0.5% NP-40). The resulting colorimetric reaction was measured in a spectrophotometric plate reader (Titertek Inc.) at 420 nm. All data were analyzed using the computer program XLFit (IDBSm).
(§2) R-SAT assay was conducted as set forth in […]

NPFF2 = molecular target: T1, NPFF2 (Homo sapiens, UniProt Q9Y5X5); test: Receptor Selection and Amplification Technology (R-SAT) functional assay, NPFF2; assay type: cell-based; settings: R-SAT, Table 1; for Emax: Efficacy is relative to endogenous ligand, read-out: NPFF2 % Efficacy; for EC50 / NPFF2 pEC50: NA = No activity detectable at the highest dose tested (20 μM); for EC50: read-out: NPFF2 pEC50 (converted)
T1 construct: expressed in transfected cells; host or cells: NIH3T3
Description: as §1, §2

T1 sequence (Q9Y5X5 103-522): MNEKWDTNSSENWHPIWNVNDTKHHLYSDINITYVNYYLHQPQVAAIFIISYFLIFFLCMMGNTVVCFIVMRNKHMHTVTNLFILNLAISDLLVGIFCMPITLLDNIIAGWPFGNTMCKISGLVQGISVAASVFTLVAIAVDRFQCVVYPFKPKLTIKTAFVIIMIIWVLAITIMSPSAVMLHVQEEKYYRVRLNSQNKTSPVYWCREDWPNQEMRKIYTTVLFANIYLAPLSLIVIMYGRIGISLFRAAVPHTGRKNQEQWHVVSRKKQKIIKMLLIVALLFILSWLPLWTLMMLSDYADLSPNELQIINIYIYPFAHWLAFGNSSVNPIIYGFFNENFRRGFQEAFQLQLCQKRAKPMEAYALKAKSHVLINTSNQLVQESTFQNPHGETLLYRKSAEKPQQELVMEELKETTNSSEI
NPFF1, sequence (Q9GZQ6 whole entry, species assumed): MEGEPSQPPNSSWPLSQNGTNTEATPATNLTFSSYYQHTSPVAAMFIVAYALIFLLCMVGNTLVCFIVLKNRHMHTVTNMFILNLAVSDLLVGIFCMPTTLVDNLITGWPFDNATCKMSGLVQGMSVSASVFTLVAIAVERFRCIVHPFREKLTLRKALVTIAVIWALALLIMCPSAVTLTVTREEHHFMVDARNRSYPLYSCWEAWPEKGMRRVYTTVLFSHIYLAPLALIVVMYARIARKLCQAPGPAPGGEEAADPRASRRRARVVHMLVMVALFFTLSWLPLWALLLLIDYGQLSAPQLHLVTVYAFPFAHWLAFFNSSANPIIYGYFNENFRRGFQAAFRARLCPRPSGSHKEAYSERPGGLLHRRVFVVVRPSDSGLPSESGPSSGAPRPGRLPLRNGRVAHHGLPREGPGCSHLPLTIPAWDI

| SMILES | Emax (NPFF1) | Emax (NPFF2) | EC50 (NPFF2) | EC50 (NPFF1) | NPFF2 pEC50 (NPFF2) |
| --- | --- | --- | --- | --- | --- |
| N=C(N)NN=Cc1ccc(F)c(Br)c1 [Compound 2010, 1-(3-Bromo-4-fluorobenzylideneamino)guanidine Hydrochloride] | 7% | 53% | 1260 nM | – | – |
| Cc1ccc(C=NNC(=N)N)cc1C [Compound 3019, 1-(3,4-Dimethylbenzylideneamino)guanidine Hydrochloride] | 12% | 86% | 2510 nM | – | – |
| CC(=NNC(=N)N)c1ccc(C)c(C)c1 [Compound 3021, 1-[1-(3,4-Dimethylphenyl)ethylideneamino]guanidine Hydrochloride] | 32% | 70% | 2510 nM | 10000 nM | – |
| COc1cc(OC)c(C=NNC(=N)N)cc1Br [Compound 4015, 1-(5-Bromo-2,4-dimethoxybenzylideneamino)guanidine Hydrochloride] | 37% | 64% | 2000 nM | 7940 nM | – |
| N=C(N)NN=Cc1cccc(-c2ccccc2C(F)(F)F)c1 [Compound 2058, 1-[3-(2-Trifluoromethylphenyl)benzylideneamino]guanidine Hydrochloride] | 25% | 60% | 501 nM | 1000 nM | – |
| CCCC/C(=N\NC(=N)N)c1ccc(O)cc1 [Compound 1004] | – | 106% | – | – | – |
| CC(=NNC(=N)N)c1ccc(Br)cc1 [Compound 3016, 1-[1-(4-Bromophenyl)ethylideneamino]guanidine Hydrochloride] | 16% | 74% | 1580 nM | – | – |
| CCCCC/C(=N/NC(=N)N)c1cccc(C)c1 [Compound 1001] | – | 49% | – | – | – |
| C/C(=N\NC(=N)N)c1cc(Br)ccc1Br [Compound 1006] | – | 53% | – | – | – |
| N=C(N)NN=Cc1cccc(C(F)(F)F)c1 [Compound 2002, 1-[3-(Trifluoromethyl)benzylideneamino]guanidine Hydrochloride] | – | 39% | 2510 nM | – | – |
| CN(C)c1ccc(/C=N/NC(=N)N)cc1[N+](=O)[O-] [Compound 1012] | – | 51% | – | – | 5.2 |
| N=C(N)NN=Cc1cc(F)ccc1[N+](=O)[O-] [Compound 2004, 1-(5-Fluoro-2-nitrobenzylideneamino)guanidine Hydrochloride] | – | 38% | 10000 nM | – | – |
| CCCCC/C(=N\NC(=N)N)c1ccc(C)cc1 [Compound 1002] | – | 41% | – | – | 6.2 |
| N=C(N)NN=Cc1c2ccccc2cc2ccccc12 [Compound 2006, 1-[(Anthracen-9-yl)methylideneamino]guanidine Hydrochloride] | – | 51% | 794 nM | – | – |
| COc1ccc(/C=N/NC(=N)N)cc1 [Compound 1014] | – | 97% | – | – | 5.0 |
| COc1ccc(C=NNC(=N)N)cc1Cl [Compound 2043, 1-(3-Chloro-4-methoxybenzylideneamino)guanidine Hydrochloride] | – | 47% | 2000 nM | – | – |
| N=C(N)N/N=C/c1ccc(Br)cc1 [Compound 1007] | – | 102% | – | – | – |
| C=CCOc1ccc(C=NNC(=N)N)cc1Cl [Compound 2042, 1-(4-Allyloxy-3-chlorobenzylideneamino)guanidine Hydrochloride] | – | 60% | 794 nM | – | – |
| COc1ccc(/C=N/NC(=N)N)cc1I [Compound 1005] | – | 70% | – | – | 5.5 |
| CC(=NNC(=N)N)c1cccc(Br)c1 [Compound 2003, 1-[1-(3-Bromophenyl)ethylideneamino]guanidine Hydrochloride] | – | 49% | 1580 nM | – | – |
| C/C(=N\NC(=N)N)c1ccccc1 [Compound 1010] | – | 51% | – | – | 5.2 |
| N#CCCCCOc1ccc(C=NNC(=N)N)cc1Cl [Compound 2044, 1-[3-Chloro-4-(4-cyanobutoxy)benzylideneamino]guanidine Hydrochloride] | – | 45% | 3980 nM | – | – |
